For test [1], the target named is T1, NAMPT (Homo sapiens, UniProt P43490). Nature of the test: TR-FRET Binding Assay of NAMPT with PRPP. The settings on record: 2 nM NAMPT, 2 nM probe, 200 µM PRPP and 2.5 mM ATP, equilibrated 16 hours. The essentials: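 Substrates present: PRPP at 200 µM and ATP at 2.5 mM, final, alongside 2 nM enzyme, 2 nM tracer and 1 nM terbium anti-His donor in 2% DMSO. A 16-hour equilibration preceded the time-resolved FRET read, allowing compounds to be enzymatically modified.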

Test [2] deals with T1, NAMPT. Nature of the test: Time-Resolved Fluorescence Resonance Energy Transfer (TR-FRET) Binding Assay of NAMPT. The settings on record: 6.8 nM NAMPT, 200 nM probe, equilibrated 3 hours, no substrates. The method in brief:
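IC50s come from four-parameter logistic fits of control-normalized Em520/Em495 TR-FRET ratios (Ex 337 nm) against compound concentration. Before reading, enzyme, probe, antibody and compound equilibrated for 3 h at room temperature.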

For the next test, the system named is PC3 cells. The test is described as follows: NAMPT Cell Proliferation Assay (Cell Titer Glo). It is filed as cell-based. The conditions noted are these: Homo sapiens, PC-3, 120 h, incubated 5 days, cell viability. The essentials: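 Viability measured by Cell Titer Glo luminescence after 5-day exposure of attached PC3 cells to compound, dosed as 10-fold serial dilutions ([…]) in RPMI/10% FBS at 37 °C and 5% CO2. Percent inhibition fitted to sigmoidal dose-response curves for IC50.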

T1 sequence (P43490 whole entry): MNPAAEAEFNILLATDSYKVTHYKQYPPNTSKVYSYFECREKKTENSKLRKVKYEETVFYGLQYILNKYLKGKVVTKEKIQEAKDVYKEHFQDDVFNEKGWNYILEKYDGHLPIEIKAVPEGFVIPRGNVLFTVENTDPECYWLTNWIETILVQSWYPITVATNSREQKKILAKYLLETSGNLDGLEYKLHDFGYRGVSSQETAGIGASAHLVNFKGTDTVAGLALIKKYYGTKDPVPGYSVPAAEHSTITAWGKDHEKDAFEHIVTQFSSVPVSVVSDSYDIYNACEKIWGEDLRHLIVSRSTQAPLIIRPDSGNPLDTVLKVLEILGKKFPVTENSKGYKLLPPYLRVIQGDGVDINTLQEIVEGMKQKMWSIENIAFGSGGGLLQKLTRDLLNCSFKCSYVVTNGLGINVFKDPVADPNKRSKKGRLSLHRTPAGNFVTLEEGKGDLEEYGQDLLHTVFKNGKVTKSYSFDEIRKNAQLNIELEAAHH

As a reminder, the IC50 is the point on the concentration scale where inhibition reaches its midpoint. Read a high IC50 as a need for much substance. In the case of `CCC(=O)N1CC(c2ccc(NC(=O)N3CC(c4cccnc4)C3)cc2)C1` [Example 226, N-[4-(1-propanoylazetidin-3-yl)phenyl]-3-(pyridin-3-yl)azetidine-1-carboxamide], the IC50 came to 0.44 nM on NAMPT [1], 169 nM on NAMPT [2] and 200 nM with PC3 cells.

With `O=C(CC1CCOCC1)N1CCC(Oc2ccc(NC(=O)N3CC(c4cncc(F)c4)C3)cc2)CC1` [Example 3, 3-(5-fluoropyridin-3-yl)-N-(4-{[1-(tetrahydro-2H-pyran-4-ylacetyl)piperidin-4-yl]oxy}phenyl)azetidine-1-carboxamide], the IC50 turned out to be 7.64 nM on NAMPT [1], 1220 nM on NAMPT [2] and 4680 nM in the test on PC3 cells.

On to `CCOCC(=O)N1CC=C(c2ccc(NC(=O)N3CC(c4cccnc4)C3)cc2)CC1` [Example 22, N-{4-[1-(ethoxyacetyl)-1,2,3,6-tetrahydropyridin-4-yl]phenyl}-3-(pyridin-3-yl)azetidine-1-carboxamide], for which the IC50 on NAMPT [1] is 0.63 nM; at NAMPT [2], 143 nM; with PC3 cells it was 276 nM.

In the case of `CC1(C(=O)N2CC[C@@H](Oc3ccc(NC(=O)N4CC(c5cccnc5)C4)cc3)C2)CC1` [Example 309, N-[4-({(3R)-1-[(1-methylcyclopropyl)carbonyl]pyrrolidin-3-yl}oxy)phenyl]-3-(pyridin-3-yl)azetidine-1-carboxamide], the IC50 turned out to be 0.262 nM at NAMPT [1], 32.8 nM at NAMPT [2] and 11.1 nM in the test with PC3 cells.

In the case of `O=C(CC1CCOCC1)N1CC(c2ccc(NC(=O)N3CC(c4cccnc4)C3)cc2)C1` [Example 100, 3-(pyridin-3-yl)-N-{4-[1-(tetrahydro-2H-pyran-4-ylacetyl)azetidin-3-yl]phenyl}azetidine-1-carboxamide], the IC50 turned out to be 0.309 nM at NAMPT [1], 108 nM on NAMPT [2] and 27.3 nM with PC3 cells.

As for `COCCOCC(=O)N1CC(c2ccc(NC(=O)N3CC(c4cccnc4)C3)cc2)C1` [Example 210, N-(4-{1-[(2-methoxyethoxy)acetyl]azetidin-3-yl}phenyl)-3-(pyridin-3-yl)azetidine-1-carboxamide], the figures for the IC50 at NAMPT [1], at NAMPT [2] and in the test with PC3 cells were 0.356 nM, 206 nM and 218 nM, respectively.

For the molecule `CCCC(C)C(=O)N1CC(Oc2ccc(NC(=O)N3CC(c4cccnc4)C3)cc2)C1` (stereo not drawn) [Example 136, N-(4-{[1-(2-methylpentanoyl)azetidin-3-yl]oxy}phenyl)-3-(pyridin-3-yl)azetidine-1-carboxamide], the IC50 on NAMPT [1] came out at 0.544 nM; at NAMPT [2] it was 15 nM; in the test on PC3 cells, 7.42 nM.

In the case of `CC[C@H](C)C(=O)N1CC=C(c2ccc(NC(=O)N3CC(c4cccnc4)C3)cc2)CC1` [Example 9, N-(4-{1-[(2S)-2-methylbutanoyl]-1,2,3,6-tetrahydropyridin-4-yl}phenyl)-3-(pyridin-3-yl)azetidine-1-carboxamide], the half-inhibitory concentration (IC50) on NAMPT [1] stood at 0.346 nM; on NAMPT [2], 16.3 nM; in the test on PC3 cells, 6.82 nM.

`CC(C)CN1CC(c2ccc(NC(=O)N3CC(c4cccnc4)C3)cc2)C1` [Example 251, N-{4-[1-(2-methylpropyl)azetidin-3-yl]phenyl}-3-(pyridin-3-yl)azetidine-1-carboxamide]: the concentration for half-maximal inhibition (IC50) at NAMPT [1] turned out to be 0.365 nM; at NAMPT [2], 382 nM; with PC3 cells it was 212 nM.

Consider `CCC(C)(C)C(=O)N1CCC(c2ccc(NC(=O)N3CC(c4cccnc4)C3)cc2)CC1` [Example 169, N-{4-[1-(2,2-dimethylbutanoyl)piperidin-4-yl]phenyl}-3-(pyridin-3-yl)azetidine-1-carboxamide], for which the values for the half-inhibitory concentration (IC50) on NAMPT [1], at NAMPT [2] and in the test on PC3 cells were 0.304 nM, 5.36 nM and 7.98 nM, respectively.

With `O=C(CC1C[C@@H]2CC[C@H]1C2)N1CC(Oc2ccc(NC(=O)N3CC(c4cccnc4)C3)cc2)C1` (stereo partly drawn) [Example 122, N-[4-({1-[(1S,4R)-bicyclo[2.2.1]hept-2-ylacetyl]azetidin-3-yl}oxy)phenyl]-3-(pyridin-3-yl)azetidine-1-carboxamide], the half-inhibitory concentration (IC50) on NAMPT [1] turned out to be 0.588 nM; on NAMPT [2], 16.6 nM; in the test on PC3 cells it was 8.81 nM.

With `CC(C)CC(=O)N1CCC(c2ccc(NC(=O)N3CC(c4cccnc4)C3)cc2)CC1` [Example 174, N-{4-[1-(3-methylbutanoyl)piperidin-4-yl]phenyl}-3-(pyridin-3-yl)azetidine-1-carboxamide], the results for the half-maximal inhibitory concentration (IC50) on NAMPT [1], at NAMPT [2] and with PC3 cells were 0.325 nM, 20.8 nM and 24.4 nM, respectively.

As for `Cc1ccc(C(=O)N2CC[C@@H](Oc3ccc(NC(=O)N4CC(c5cccnc5)C4)cc3)C2)s1` [Example 323, N-[4-({(3R)-1-[(5-methylthiophen-2-yl)carbonyl]pyrrolidin-3-yl}oxy)phenyl]-3-(pyridin-3-yl)azetidine-1-carboxamide], the figures for the IC50 at NAMPT [1], at NAMPT [2] and in the test with PC3 cells were 0.194 nM, 41.4 nM and 51 nM, respectively.

As to `O=C(Nc1ccc(OC2CCN(C(=O)[C@@H]3CCCO3)CC2)cc1)N1CC(c2cccnc2)C1` [Example 31, 3-(pyridin-3-yl)-N-[4-({1-[(2S)-tetrahydrofuran-2-ylcarbonyl]piperidin-4-yl}oxy)phenyl]azetidine-1-carboxamide], the concentration for half-maximal inhibition (IC50) was 0.33 nM on NAMPT [1], 40.6 nM on NAMPT [2] and 38.9 nM in the test with PC3 cells.

Consider `CN1CCN(CC(=O)N2CCC(c3ccc(NC(=O)N4CC(c5cccnc5)C4)cc3)C2)CC1` (stereo not drawn) [Example 272, N-(4-{1-[(4-methylpiperazin-1-yl)acetyl]pyrrolidin-3-yl}phenyl)-3-(pyridin-3-yl)azetidine-1-carboxamide], for which the IC50 on NAMPT [1] was found to be 0.241 nM; at NAMPT [2], 90.7 nM; with PC3 cells it was 222 nM.

On to `Cc1ccc(C2CN(C(=O)Nc3ccc(OC4CCN(C(=O)CC5CCOCC5)CC4)cc3)C2)cn1` [Example 8, 3-(6-methylpyridin-3-yl)-N-(4-{[1-(tetrahydro-2H-pyran-4-ylacetyl)piperidin-4-yl]oxy}phenyl)azetidine-1-carboxamide], for which the values for the IC50 at NAMPT [1], on NAMPT [2] and with PC3 cells were 15.4 nM, 617 nM and 7030 nM, respectively.

Turning to `CC1CC1C(=O)N1CCC(c2ccc(NC(=O)N3CC(c4cccnc4)C3)cc2)CC1` (stereo not drawn) [Example 164, N-(4-{1-[(2-methylcyclopropyl)carbonyl]piperidin-4-yl}phenyl)-3-(pyridin-3-yl)azetidine-1-carboxamide], the IC50 at NAMPT [1] turned out to be 0.313 nM; on NAMPT [2], 15.9 nM; with PC3 cells it was 25.9 nM.

With `O=C(Nc1ccc(C2CN(CC3CCCO3)C2)cc1)N1CC(c2cccnc2)C1` (stereo not drawn) [Example 250, 3-(pyridin-3-yl)-N-{4-[1-(tetrahydrofuran-2-ylmethyl)azetidin-3-yl]phenyl}azetidine-1-carboxamide], the IC50 at NAMPT [1] is 0.679 nM; on NAMPT [2] it was 865 nM; with PC3 cells, 664 nM.

Take `O=C(CC1C[C@@H]2CC[C@H]1C2)N1CC(c2ccc(NC(=O)N3CC(c4cccnc4)C3)cc2)C1` (stereo partly drawn) [Example 200, N-(4-{1-[(1S,4R)-bicyclo[2.2.1]hept-2-ylacetyl]azetidin-3-yl}phenyl)-3-(pyridin-3-yl)azetidine-1-carboxamide]: the IC50 on NAMPT [1] amounted to 0.382 nM; on NAMPT [2], 36.4 nM; in the test with PC3 cells it was 17 nM.

As to `CC[C@H](C)C(=O)N1CC(c2ccc(NC(=O)N3CC(c4cccnc4)C3)cc2)C1` [Example 110, N-(4-{1-[(2S)-2-methylbutanoyl]azetidin-3-yl}phenyl)-3-(pyridin-3-yl)azetidine-1-carboxamide], the 50% inhibitory concentration (IC50) on NAMPT [1] came to 0.421 nM; at NAMPT [2], 35.3 nM; in the test with PC3 cells, 11.8 nM.

With `O=C(CC1CCCCC1)N1CCC(c2ccc(NC(=O)N3CC(c4cccnc4)C3)cc2)C1` (stereo not drawn) [Example 278, N-{4-[1-(cyclohexylacetyl)pyrrolidin-3-yl]phenyl}-3-(pyridin-3-yl)azetidine-1-carboxamide], the figures for the half-inhibitory concentration (IC50) on NAMPT [1], on NAMPT [2] and with PC3 cells were 0.213 nM, 19.7 nM and 30.6 nM, respectively.

Take `O=C(CC1CCOCC1)N1CCC(Oc2ccc(NC(=O)N3CC(c4cccnc4)C3)cc2)CC1` [Example 2, 3-(pyridin-3-yl)-N-(4-{[1-(tetrahydro-2H-pyran-4-ylacetyl)piperidin-4-yl]oxy}phenyl)azetidine-1-carboxamide]: the values for the IC50 on NAMPT [1], at NAMPT [2] and in the test with PC3 cells were 0.37 nM, 125 nM and 34.9 nM, respectively.

Consider `O=C(Nc1ccc(OC2CN(C(=O)C3CC3)C2)cc1)N1CC(c2cccnc2)C1` [Example 140, N-(4-{[1-(cyclopropylcarbonyl)azetidin-3-yl]oxy}phenyl)-3-(pyridin-3-yl)azetidine-1-carboxamide], for which the figures for the IC50 on NAMPT [1], on NAMPT [2] and in the test with PC3 cells were 0.181 nM, 43 nM and 26.3 nM, respectively.

In the case of `O=C(CCC(F)(F)F)N1CC(Oc2ccc(NC(=O)N3CC(c4cccnc4)C3)cc2)C1` [Example 126, 3-(pyridin-3-yl)-N-(4-{[1-(4,4,4-trifluorobutanoyl)azetidin-3-yl]oxy}phenyl)azetidine-1-carboxamide], the half-maximal inhibitory concentration (IC50) at NAMPT [1] came out at 0.401 nM; at NAMPT [2], 14.4 nM; in the test on PC3 cells, 7.38 nM.

On to `O=C(CC(F)(F)F)N1CC(Oc2ccc(NC(=O)N3CC(c4cccnc4)C3)cc2)C1` [Example 134, 3-(pyridin-3-yl)-N-(4-{[1-(3,3,3-trifluoropropanoyl)azetidin-3-yl]oxy}phenyl)azetidine-1-carboxamide], for which the half-inhibitory concentration (IC50) at NAMPT [1] was determined as 0.317 nM; on NAMPT [2], 54.2 nM; with PC3 cells, 28.3 nM.
